Experiment: Surface energy by inverse gas chromatography (IGC)
Assay type: physicochemical
Conditions: 35° C., powder
Procedure: Surface energy of the drug and the drug surfactant particles was measured by inverse gas chromatography. A silanised U-shaped column (3 mm internal diameter, 30 cm length) was packed with approximately 400 mg of the test powder and dried under nitrogen for 24 hours at 50° C. The powder bed was then allowed to settle for 24 hours at 35° C. (temperature used during the experiments) under nitrogen. The test probes used were: hexane, heptane, octane, chloroform, CCl4, benzene, acetone, tetrahydrofuran, ethyl acetate and diethyl ether. One ml of air containing a minute concentration of each gaseous probe was injected into the column and the retention time measured.

Compound	γs^D (n = 3) [mJ/m²]
Salbutamol sulphate	43.3
CCC(=O)OCC(=O)[C@@]1(OC(=O)CC)[C@@H](C)C[C@H]2[C@@H]3CCC4=CC(=O)C=C[C@]4(C)[C@@]3(Cl)[C@@H](O)C[C@@]21C [BDP, Beclomethasone dipropionate]	52.3
